Series [1] in a line: In-vivo pharmacokinetic study in rats. Further details: species or system SD female rats. The note with it: female, SD, rat, plasma, po, intragastric administration, 5 mg/kg; for AUC(0-t): read-out: AUC0-24h. As for the experimental part: 1.1 Instrument: high-performance liquid chromatograph: SHIMADZU LC-30AD; mass spectrum: AB SCIEX mass spectrometer Triple Quad 5500; all measured data were calculated and processed using Microsoft Excel, and relevant pharmacokinetic parameters were calculated using WinNonlin software. The main obtained kinetic parameters are Tmax, T1/2, Cmax, AUC0-24 h, and AUCinf. […] Sample injection amount: 1 µL.
1.2 Animals: three SD female rats were used. The body weight range was 180-300 g. After purchase, the rats were bred in the experimental animal center for two days for later use. The rats were fasted 12 h before administration and 4 h after administration, and given ad libitum access to water during the assay. Blood samples were taken at predetermined time points after intragastric administration.
1.3 Vehicle: 0.5% HPMC (hydroxypropyl methylcellulose) + 0.4% Tween80 + 99.1% water. Preparation of intragastric administration solution: The compound was precisely weighed, the vehicle was added, and then the drug was completely dissolved by ultrasonication at room temperature for 5 min and prepared into a 0.5 mg/mL solution. After the intragastric administration, blood samples were taken at 0.083 h, 0.25 h, 0.5 h, 1.0 h, 2.0 h, 4.0 h, 7.0 h, and 24 h. The blood collection mode is as follows: 0.2 mL of the jugular vein blood was collected, EDTA-K2 was used as an anticoagulation agent, the collected blood sample was transferred into a microcentrifuge tube containing the anticoagulation agent, and the tube was centrifuged at 4 °C and 4000 g for 5 min to separate the plasma. All plasma samples collected were stored at -75±15 °C until analysis.
The compound was precisely weighed and prepared into a standard curve working solution and a quality control working solution at different concentrations. The blank plasma was added and prepared into a plasma standard curve and a quality control sample. LC/MS/MS analysis was performed after pretreatment using a protein precipitation method, and then the concentration of the compounds described above in the plasma was measured. All measured data were collected and processed by the relevant software, and pharmacokinetic parameters were calculated using Winnonlin software. Table 9. Pharmacokinetic parameters of some compounds in the examples in rats

The target in the next series is T1, KAT6A (Homo sapiens, UniProt Q92794).
T1 construct: purchased active motife (Active Motif) 81223
T1 sequence (Q92794 whole entry): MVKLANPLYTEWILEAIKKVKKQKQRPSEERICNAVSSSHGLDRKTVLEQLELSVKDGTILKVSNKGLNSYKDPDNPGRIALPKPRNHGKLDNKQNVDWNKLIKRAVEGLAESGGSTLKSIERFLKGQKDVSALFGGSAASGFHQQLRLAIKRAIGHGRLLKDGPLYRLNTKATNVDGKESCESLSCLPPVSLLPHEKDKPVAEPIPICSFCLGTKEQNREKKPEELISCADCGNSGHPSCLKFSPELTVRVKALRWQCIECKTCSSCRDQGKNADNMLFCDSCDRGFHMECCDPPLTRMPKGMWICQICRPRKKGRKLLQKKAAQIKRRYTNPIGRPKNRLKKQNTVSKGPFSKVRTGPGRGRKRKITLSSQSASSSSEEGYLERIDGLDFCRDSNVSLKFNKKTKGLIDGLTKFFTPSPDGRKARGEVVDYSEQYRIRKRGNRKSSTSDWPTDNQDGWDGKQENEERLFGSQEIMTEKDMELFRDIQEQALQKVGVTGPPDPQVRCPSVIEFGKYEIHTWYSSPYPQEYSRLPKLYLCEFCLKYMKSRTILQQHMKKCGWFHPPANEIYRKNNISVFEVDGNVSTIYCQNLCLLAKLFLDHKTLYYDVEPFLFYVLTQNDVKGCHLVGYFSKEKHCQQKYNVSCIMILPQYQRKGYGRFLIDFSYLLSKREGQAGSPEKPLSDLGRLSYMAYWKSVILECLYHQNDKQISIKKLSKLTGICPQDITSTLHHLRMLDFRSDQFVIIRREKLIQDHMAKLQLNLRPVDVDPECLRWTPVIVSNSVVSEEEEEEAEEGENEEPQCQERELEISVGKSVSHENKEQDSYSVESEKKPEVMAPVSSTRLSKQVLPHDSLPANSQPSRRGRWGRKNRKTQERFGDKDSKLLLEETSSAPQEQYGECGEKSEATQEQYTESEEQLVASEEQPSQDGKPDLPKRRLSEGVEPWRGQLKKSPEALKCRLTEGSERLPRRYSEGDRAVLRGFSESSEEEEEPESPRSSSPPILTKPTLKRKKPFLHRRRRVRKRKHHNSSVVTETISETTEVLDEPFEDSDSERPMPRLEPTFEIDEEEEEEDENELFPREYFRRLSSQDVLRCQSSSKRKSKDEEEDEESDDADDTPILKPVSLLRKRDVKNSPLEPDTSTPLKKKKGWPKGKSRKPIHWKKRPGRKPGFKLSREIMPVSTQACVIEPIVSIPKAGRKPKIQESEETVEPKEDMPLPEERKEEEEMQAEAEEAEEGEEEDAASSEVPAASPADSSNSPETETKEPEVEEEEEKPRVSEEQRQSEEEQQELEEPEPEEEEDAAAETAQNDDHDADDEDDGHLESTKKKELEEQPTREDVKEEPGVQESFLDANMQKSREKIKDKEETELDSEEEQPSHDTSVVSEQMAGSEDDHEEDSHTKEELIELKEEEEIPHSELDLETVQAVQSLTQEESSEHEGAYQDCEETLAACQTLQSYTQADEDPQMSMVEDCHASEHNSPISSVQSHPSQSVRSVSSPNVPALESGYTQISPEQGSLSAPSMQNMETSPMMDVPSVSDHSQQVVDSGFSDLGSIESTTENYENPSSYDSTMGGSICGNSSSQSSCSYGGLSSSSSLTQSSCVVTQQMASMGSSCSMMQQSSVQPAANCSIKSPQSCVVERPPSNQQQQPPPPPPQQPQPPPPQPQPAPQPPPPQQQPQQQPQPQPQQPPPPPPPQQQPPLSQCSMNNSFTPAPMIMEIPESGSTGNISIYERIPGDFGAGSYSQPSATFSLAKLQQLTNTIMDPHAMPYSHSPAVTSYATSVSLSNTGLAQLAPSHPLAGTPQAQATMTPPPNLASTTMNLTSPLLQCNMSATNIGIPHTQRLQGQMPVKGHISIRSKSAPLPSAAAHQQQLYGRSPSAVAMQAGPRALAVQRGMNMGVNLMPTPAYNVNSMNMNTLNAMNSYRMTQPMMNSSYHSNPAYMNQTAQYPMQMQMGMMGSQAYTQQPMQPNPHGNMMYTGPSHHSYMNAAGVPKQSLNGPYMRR
Description: Enzymatic activity assay for KAT6A acetyltransferase (TR-FRET, acetylation of histone substrate H3). Type of series: biochemical. Here is the method: The acetylation effect of KAT6A on histone substrate H3 was determined using the TR-FRET (time-resolved fluorescence resonance energy transfer) method.
• 1) The compounds prepared in the examples of the present disclosure were each dissolved in dimethylsulfoxide to give solutions at a concentration of 10 mmol/L, and then the solutions were diluted to 0.2 mmol/L, i.e., 1 µL of the compound was added to 49 µL of DMSO, and 3-fold dilution was performed to give 10 concentrations. • 2) 50 nL of the test compounds (example compounds) were transferred to 384 reaction plates using Echo, two replicates for each compound, and the plates were centrifuged at a rotation speed of 1000 rpm for 1 min, the final concentration of dimethylsulfoxide (DMSO) being 0.5%. • 3) 2.5 µL of the reaction mixtures obtained in step 2 was added to the 384 reaction plates in step 2), and the plates were centrifuged at 1000 rpm for 1 min and incubated at 25 °C for 10 min. • 4) 2.5 µL of Bio-H3&AcCOA (acetyl-CoA) reaction solution was added to the 384 reaction plates in step 3), and the plates were centrifuged at a rotation speed of 1000 rpm for 1 min and incubated at 25 °C for 90 min. • 5) 5 µL of Eu-Ab& Ulight-SA detection solution was added to the 384 reaction plates in step 4), and the plates were centrifuged at 1000 rpm for 1 min and incubated at 25 °C for 60 min. • 6) The HTRF […] signals were read using a BMG high-throughput drug-screening multi-mode microplate reader.
The acetylation level of the histone H3 was analyzed by the GraphPad Prism 8 software. The reading of the negative control (0.5% DMSO wells) was set as 0% inhibition rate, and the reading of the positive control (wells with the highest concentration of the control compound) was set as 100% inhibition rate. The inhibition rates were calculated, and then IC50 values (half maximal inhibitory concentration) of test compounds were obtained by using a software nonlinear fitting formula; [formula]
Datapositive control: mean of positive control well values; Datanegative control: mean of negative control well values. Table 3. Enzymatic inhibitory activity of example compounds
A general note: In TR-FRET formats the signal depends on donor and acceptor labels being close together.

Bounds are passed on as bounds.

Results on 19 molecules are retold here after patent publication EP4692094A1 (Beijing Konruns Pharmaceutical Co., Ltd., priority 2023, dated 2024).

For orientation: AUC(0-inf) means the area under the concentration-time curve extrapolated to infinity. A higher AUC(0-inf) goes with high exposure. What is called Cmax is the highest concentration seen after dosing. The term Tmax denotes the time at which the peak concentration occurs. By IC50 is commonly meant the concentration that gives 50% inhibition. A low value points to greater potency. As usually defined, the half-life is the time needed for the level to fall by half in the phase considered.

Consider `COc1ccc2cccnc2c1S(=O)(=O)Nc1noc2cc(Cn3cccn3)nc(OC)c12` [Example 11, N-(6-((1H-Pyrazol-1-yl)methyl)-4-methoxyisoxazolo[4,5-c]pyridin-3-yl)-7-methoxyquinoline-8-sulfonamide], for which, in series [1], the AUC(0-inf) turned out to be 32 µg·h/mL, the Cmax stood at 3310 ng/mL, the Tmax was 0.83 h and the AUC(0-t) was 32 µg·h/mL. The same molecule yielded an IC50 at KAT6A of 0.77 nM. Take `COc1cc2c(c(OC)c1S(=O)(=O)Nc1noc3cc(Cn4cccn4)nc(OC)c13)CCC2` [Example 62, N-(6-((1H-Pyrazol-1-yl)methyl)-4-methoxyisoxazolo[4,5-c]pyridin-3-yl)-4,6-dimethoxy-2,3-dihydro-1H-indene-5-sulfonamide]: in series [1], the half-life was at most 10 h, the AUC(0-inf) was found to be 450 µg·h/mL, the concentration peaked (Cmax) at 25600 ng/mL and the Tmax stood at 1.17 h. Besides, in series [1], the AUC(0-t) came out at 356 µg·h/mL. At KAT6A, this molecule registered a half-inhibitory concentration (IC50) of 0.84 nM. As to `COc1nc(Cn2cccn2)cc2onc(NS(=O)(=O)c3ccc(C#CC4CC4)c4ccoc34)c12` [Example 90, N-(6-((1H-Pyrazol-1-yl)methyl)-4-methoxyisoxazolo[4,5-c]pyridin-3-yl)-4-(cyclopropylethynyl)benzofuran-7-sulfonamide], at KAT6A, the IC50 amounted to 7.18 nM. Turning to `COc1cc2c(cc1S(=O)(=O)Nc1noc3cc(C(F)(F)n4cccn4)nc(OC)c13)CCCC2` [Example 91, N-(6-(Difluoro(1H-pyrazol-1-yl)methyl)-4-methoxyisoxazolo[4,5-c]pyridin-3-yl)-3-methoxy-5,6,7,8-tetrahydronaphthalene-2-sulfonamide], the IC50 against KAT6A turned out to be 17.6 nM.

`COc1ccc(S(=O)(=O)Nc2noc3cc(Cn4cccn4)nc(OC)c23)c2c1C=CCO2` [Example 94, N-(6-((1H-Pyrazol-1-yl)methyl)-4-methoxyisoxazolo[4,5-c]pyridin-3-yl)-5-methoxy-2H-benzopyran-8-sulfonamide] displayed an IC50 against KAT6A of 2.37 nM. On the same count and under the same terms, next, `COc1ccc(S(=O)(=O)Nc2noc3cc(Cn4cccn4)nc(OC)c23)c2c1CCCO2` [Example 95, N-(6-((1H-Pyrazol-1-yl)methyl)-4-methoxyisoxazolo[4,5-c]pyridin-3-yl)-5-methoxy-3,4-dihydro-1H-benzopyran-8-sulfonamide]: 1.63 nM; `C#Cc1ccc(S(=O)(=O)Nc2noc3cc(Cn4cccn4)nc(OC)c23)c2occc12` [Example 96, N-(6-((1H-pyrazol-1-yl)methyl)-4-methoxyisoxazolo[4,5-c]pyridin-3-yl)-4-ethynyl-benzofuran-7-sulfonamide]: 6.67 nM; `COc1cc2c(c(OC)c1S(=O)(=O)Nc1noc3cc(Cn4cccn4)nc(OC)c13)CCO2` [Example 97, N-(6-((1H-pyrazol-1-yl)methyl)-4-methoxyisoxazolo[4,5-c]pyridin-3-yl)-4,6-dimethoxy-2,3-dihydrobenzofuran-5-sulfonamide]: 0.95 nM. Still for that read-out and setting: next, `COc1cc(OC)c(S(=O)(=O)Nc2noc3cc(Cn4cccn4)nc(OC)c23)c2c1CCO2` [Example 98, N-(6-((1H-pyrazol-1-yl)methyl)-4-methoxyisoxazolo[4,5-c]pyridin-3-yl)-4,6-dimethoxy-2,3-dihydrobenzofuran-7-sulfonamide]: 0.84 nM; `COc1cc2c(c(S(=O)(=O)Nc3noc4cc(Cn5cccn5)nc(OC)c34)c1)OC(C)(C)CC2` [Example 99]: 2.79 nM. As for `COc1ccc2c(c1S(=O)(=O)Nc1noc3cc(Cn4cccn4)nc(OC)c13)OC(C)(C)C2` [Example 100, N-(6-((1H-pyrazol-1-yl)methyl)-4-methoxyisoxazolo[4,5-c]pyridin-3-yl)-6-methoxy-2,2-dimethyl-3H-benzofuran-7-sulfonamide], inhibition at KAT6A was half-maximal at 1.06 nM (IC50). Still for that read-out and setting: as for `COc1cc2c(cc1S(=O)(=O)Nc1noc3cc(Cn4cccn4)nc(OC)c13)OCC2(C)C` [Example 101, N-(6-((1H-pyrazol-1-yl)methyl)-4-methoxyisoxazolo[4,5-c]pyridin-3-yl)-5-methoxy-3,3-dimethyl-2H-benzofuran-6-sulfonamide], the figure is 2.04 nM; as for `[2H]c1cc2ccc(OC)c(S(=O)(=O)Nc3noc4cc(Cn5cccn5)nc(OC)c34)c2o1` [Example 102, N-(6-((1H-pyrazol-1-yl)methyl)-4-methoxyisoxazolo[4,5-c]pyridin-3-yl)-6-methoxybenzofuran-7-sulfonamide-2-d], 0.83 nM. Same read-out and setting: next, `[2H]C1Oc2cc(S(=O)(=O)Nc3noc4cc(Cn5cccn5)nc(OC)c34)c(OC)cc2C1[2H]` (stereo not shown) [Example 103, N-(6-((1H-pyrazol-1-yl)methyl)-4-methoxyisoxazolo[4,5-c]pyridin-3-yl)-5-methoxy-2,3-dihydrobenzofuran-6-sulfonamide-2,3-d2]: 1.86 nM; `[2H]C([2H])(c1cc2onc(NS(=O)(=O)c3cc4c(cc3OC)CCO4)c2c(OC)n1)n1cccn1` [Example 104, N-(6-((1H-pyrazol-1-yl)methyl-d2)-4-methoxyisoxazolo[4,5-c]pyridin-3-yl)-5-methoxy-2,3-dihydrobenzofuran-6-sulfonamide]: 1.77 nM; `COc1cc2c(cc1S(=O)(=O)Nc1noc3cc(Cn4cccn4)nc(OC)c13)OC(C)(C)C2` [Example 105, N-(6-((1H-pyrazol-1-yl)methyl)-4-methoxyisoxazolo[4,5-c]pyridin-3-yl)-5-methoxy-2,2-dimethyl-2,3-dihydrobenzofuran-6-sulfonamide]: 2.18 nM. The same measure, in the same setting: next, `COc1nc(Cn2cccn2)cc2onc(NS(=O)(=O)c3cc(C4CC4)cc4c3OCCC4)c12` [Example 106, N-(6-((1H-pyrazol-1-yl)methyl)-4-methoxyisoxazolo[4,5-c]pyridin-3-yl)-6-cyclopropyl-3,4-dihydro-1H-benzopyran-8-sulfonamide]: 0.94 nM; `COc1nc(Cn2cccn2)cc2onc(NS(=O)(=O)c3cc(C#N)cc4c3OCCC4)c12` [Example 107, N-(6-((1H-pyrazol-1-yl)methyl)-4-methoxyisoxazolo[4,5-c]pyridin-3-yl)-6-cyano-3,4-dihydro-1H-benzopyran-8-sulfonamide]: 5.86 nM; `COc1cc2occc2cc1S(=O)(=O)Nc1noc2cc(Cn3cccn3)nc(OC)c12` [Example 108, N-(6-((1H-pyrazol-1-yl)methyl)-4-methoxyisoxazolo[4,5-c]pyridin-3-yl)-6-methoxybenzofuran-5-sulfonamide]: 1.26 nM.
